Target: T1, androgen receptor (AR-LBD) (Rattus norvegicus, UniProt P15207)
T1 construct: 5 μL of 2×AR-LBD/Fluoromone AL Red Complex contained in the kit; purchased Invitrogen
T1 sequence (P15207 651-882 limits assumed): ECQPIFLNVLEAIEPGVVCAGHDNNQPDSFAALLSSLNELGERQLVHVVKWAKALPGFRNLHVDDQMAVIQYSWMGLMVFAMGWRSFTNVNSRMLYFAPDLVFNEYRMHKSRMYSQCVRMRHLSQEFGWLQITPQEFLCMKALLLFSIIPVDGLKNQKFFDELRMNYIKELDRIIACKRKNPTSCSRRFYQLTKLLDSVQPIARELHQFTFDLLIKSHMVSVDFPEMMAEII
Assay: Evaluation of androgen receptor affinity (PolarScreen Androgen Receptor Competitor Assay Kit, Red; fluorescence polarization)
Conditions: 22° C. for 5 hours, relative to binding rate of 1 μM DHT, read-out: AR affinity (pEC50) (converted)
Protocol: Evaluation of an Androgen Receptor Affinity
To examine the interaction of a compound with an androgen receptor, evaluation was carried out in accordance with the following procedure using PolarScreen™ Androgen Receptor Competitor Assay Kit, Red (Invitrogen). To 2 wells each of a 384 well black plate was added 5 μL of the compound solution. To each well was added 5 μL of 2×AR-LBD/Fluoromone AL Red Complex contained in the kit and the samples were reacted at 22° C. for 5 hours. After 5 hours of the reaction, fluorescence polarization was measured and the affinity was evaluated. The affinity of the compound was determined by comparing to the binding rate of 1 μM of dihydrotestosterone (DHT), and quantified the logarithm value (pEC50) of reciprocal value of the effective concentration of the compound which is equal to 50% of the binding rate by applying a 4 parameter goodness-of-fit calculation.

Row | Structure (SMILES) | EC50 [nM]
1 | Cc1sc(N(C[C@H]2CCC[C@@H](CO)C2)c2ccc(C#N)cc2)nc1C(=O)NS(C)(=O)=O (racemic) [Compound 347, 2-[4-cyano-N-[[cis-3-(hydroxymethyl)cyclohexyl]methyl]anilino]-5-methyl-N-methylsulfonyl-thiazole-4-carboxamide] | 1260
2 | Cc1sc(N(C[C@H]2CCC[C@@H](CO)C2)c2ccc(C(F)(F)F)cc2)nc1C(=O)NS(C)(=O)=O (racemic) [Compound 348, 2-[N-[[cis-3-(hydroxymethyl)cyclohexyl]methyl]-4-(trifluoromethyl)anilino]-5-methyl-N-methylsulfonyl-thiazole-4-carboxamide] | 1260
3 | CO[C@@H]1CCC[C@H](CN(c2ccc(C#N)cc2)c2nc(C(=O)NS(C)(=O)=O)c(C)s2)C1 (racemic) [Compound 349, 2-[4-cyano-N-[[cis-3-methoxycyclohexyl]methyl]anilino]-5-methyl-N-methylsulfonyl-thiazole-4-carboxamide] | 501
4 | Cc1sc(N(C[C@@H]2CCCC[C@H]2O)c2ccc(C#N)cc2)nc1C(=O)NS(C)(=O)=O (racemic) [Compound 411, 2-[4-cyano-N-[[trans-2-hydroxycyclohexyl]methyl]anilino]-5-methyl-N-methylsulfonyl-thiazole-4-carboxamide] | 794
5 | Cc1sc(N(CC[C@@H]2CC[C@@H](F)C2)c2ccc(C#N)cc2)nc1C(=O)NS(C)(=O)=O (racemic) [Compound 453, 2-[4-cyano-N-[2-[trans-3-fluorocyclopentyl]ethyl]anilino]-5-methyl-N-methylsulfonyl-thiazole-4-carboxamide] | 251
6 | Cc1sc(N(CC[C@H]2C[C@H](O)CO2)c2ccc(C#N)cc2)nc1C(=O)NS(C)(=O)=O (racemic) [Compound 457, 2-[4-cyano-N-[2-[trans-4-hydroxytetrahydrofuran-2-yl]ethyl]anilino]-5-methyl-N-methylsulfonyl-thiazole-4-carboxamide] | > 2000
7 | Cc1sc(N(CC[C@@H]2CC[C@@H](O)C2)c2ccc(C#N)cc2)nc1C(=O)NS(C)(=O)=O (racemic) [Compound 459, 2-[4-cyano-N-[2-[trans-3-hydroxycyclopentyl]ethyl]anilino]-5-methyl-N-methylsulfonyl-thiazole-4-carboxamide] | 1260
8 | Cc1sc(N(Cc2ccccc2C#N)c2ccc(C#N)cc2)nc1C(=O)NS(C)(=O)=O [Compound 8, 2-[4-cyano-N-[(2-cyanophenyl)methyl]anilino]-5-methyl-N-methylsulfonyl-thiazole-4-carboxamide] | > 2000
9 | COc1ccc(N(Cc2ccccc2)c2nc(C(=O)NS(C)(=O)=O)c(C)s2)cc1 [Compound 21, 2-(N-benzyl-4-methoxy-anilino)-5-methyl-N-methylsulfonyl-thiazole-4-carboxamide] | 1580
10 | COCCOc1ccc(N(Cc2ccccc2)c2nc(C(=O)NS(C)(=O)=O)c(C)s2)cc1 [Compound 22, 2-[N-benzyl-4-(2-methoxyethoxy)anilino]-5-methyl-N-methylsulfonyl-thiazole-4-carboxamide] | 501
11 | Cc1sc(N(Cc2ccccc2)c2ccccc2OC(F)(F)F)nc1C(=O)NS(C)(=O)=O [Compound 27, 2-[N-benzyl-2-(trifluoromethoxy)anilino]-5-methyl-N-methylsulfonyl-thiazole-4-carboxamide] | > 2000
12 | Cc1sc(N(Cc2ccccc2)c2ccc(F)cc2)nc1C(=O)NS(C)(=O)=O [Compound 28, 2-(N-benzyl-4-fluoro-anilino)-5-methyl-N-methylsulfonyl-thiazole-4-carboxamide] | 1000
13 | Cc1sc(N(Cc2ccccc2)c2cccc(F)c2)nc1C(=O)NS(C)(=O)=O [Compound 29, 2-(N-benzyl-3-fluoro-anilino)-5-methyl-N-methylsulfonyl-thiazole-4-carboxamide] | > 2000
14 | Cc1sc(N(Cc2ccccc2)c2ccccc2F)nc1C(=O)NS(C)(=O)=O [Compound 30, 2-(N-benzyl-2-fluoro-anilino)-5-methyl-N-methylsulfonyl-thiazole-4-carboxamide] | > 2000
15 | Cc1sc(N(Cc2ccccc2)c2cccc(Cl)c2)nc1C(=O)NS(C)(=O)=O [Compound 32, 2-(N-benzyl-3-chloro-anilino)-5-methyl-N-methylsulfonyl-thiazole-4-carboxamide] | > 2000
16 | Cc1sc(N(Cc2ccccc2)c2ccccc2Cl)nc1C(=O)NS(C)(=O)=O [Compound 33, 2-(N-benzyl-2-chloro-anilino)-5-methyl-N-methylsulfonyl-thiazole-4-carboxamide] | > 2000
17 | Cc1sc(N(Cc2ccccc2)c2cccc(OC(F)(F)F)c2)nc1C(=O)NS(C)(=O)=O [Compound 35, 2-[N-benzyl-3-(trifluoromethoxy)anilino]-5-methyl-N-methylsulfonyl-thiazole-4-carboxamide] | > 2000

Row | Structure (SMILES) | EC50 [nM]
18 | Cc1sc(N(Cc2ccccc2)c2ccc(F)cc2F)nc1C(=O)NS(C)(=O)=O [Compound 36, 2-(N-benzyl-2,4-difluoro-anilino)-5-methyl-N-methylsulfonyl-thiazole-4-carboxamide] | 1260
19 | Cc1sc(N(Cc2ccccc2)c2ccc(OCc3ccccc3)cc2)nc1C(=O)NS(C)(=O)=O [Compound 38, 2-(N-benzyl-4-benzyloxy-anilino)-5-methyl-N-methylsulfonyl-thiazole-4-carboxamide] | > 2000
20 | Cc1sc(N(Cc2ccccn2)c2ccc(C#N)cc2)nc1C(=O)NS(C)(=O)=O [Compound 42, 2-[4-cyano-N-(2-pyridylmethyl)anilino]-5-methyl-N-methylsulfonyl-thiazole-4-carboxamide] | > 2000
21 | Cc1sc(N(Cc2cccnc2)c2ccc(C#N)cc2)nc1C(=O)NS(C)(=O)=O [Compound 43, 2-[4-cyano-N-(3-pyridylmethyl)anilino]-5-methyl-N-methylsulfonyl-thiazole-4-carboxamide] | > 2000
22 | Cc1sc(N(Cc2ccncc2)c2ccc(C#N)cc2)nc1C(=O)NS(C)(=O)=O [Compound 44, 2-[4-cyano-N-(4-pyridylmethyl)anilino]-5-methyl-N-methylsulfonyl-thiazole-4-carboxamide] | > 2000
23 | COc1ccccc1N(Cc1ccccc1)c1nc(C(=O)NS(C)(=O)=O)c(C)s1 [Compound 47, 2-(N-benzyl-2-methoxy-anilino)-5-methyl-N-methylsulfonyl-thiazole-4-carboxamide] | > 2000
24 | Cc1sc(N(Cc2ccccc2)c2ccc(F)c(F)c2)nc1C(=O)NS(C)(=O)=O [Compound 48, 2-(N-benzyl-3,4-difluoro-anilino)-5-methyl-N-methylsulfonyl-thiazole-4-carboxamide] | 398
25 | Cc1sc(N(Cc2ccccc2)c2cccnc2)nc1C(=O)NS(C)(=O)=O [Compound 49, 2-[benzyl(3-pyridyl)amino]-5-methyl-N-methylsulfonyl-thiazole-4-carboxamide] | > 2000
26 | Cc1sc(N(Cc2ccccc2)c2cccc3cccnc23)nc1C(=O)NS(C)(=O)=O [Compound 53, 2-[benzyl(8-quinolyl)amino]-5-methyl-N-methylsulfonyl-thiazole-4-carboxamide] | > 2000
27 | Cc1sc(N(Cc2ccccc2)c2cnccn2)nc1C(=O)NS(C)(=O)=O [Compound 55, 2-[benzyl(pyrazin-2-yl)amino]-5-methyl-N-methylsulfonyl-thiazole-4-carboxamide] | > 2000
28 | Cc1sc(N(c2ccc(C#N)cc2)C(C)c2ccccc2)nc1C(=O)NS(C)(=O)=O (stereo not shown) [Compound 58, 2-[4-cyano-N-(1-phenylethyl)anilino]-5-methyl-N-methylsulfonyl-thiazole-4-carboxamide] | > 2000
29 | Cc1sc(N(C)c2ccc(C#N)cc2)nc1C(=O)NS(C)(=O)=O [Compound 60, 2-(4-cyano-N-methyl-anilino)-5-methyl-N-methylsulfonyl-thiazole-4-carboxamide] | > 2000
30 | Cc1sc(N(CCc2ccc(O)cc2)c2ccc(C#N)cc2)nc1C(=O)NS(C)(=O)=O [Compound 62, 2-[4-cyano-N-[2-(4-hydroxyphenyl)ethyl]anilino]-5-methyl-N-methylsulfonyl-thiazole-4-carboxamide] | 1580
31 | Cc1sc(N(CC(=O)C(C)(C)C)c2ccc(C#N)cc2)nc1C(=O)NS(C)(=O)=O [Compound 63, 2-(4-cyano-N-(3,3-dimethyl-2-oxo-butyl)anilino)-5-methyl-N-methylsulfonyl-thiazole-4-carboxamide] | > 2000
32 | Cc1sc(N(CC2CC2)c2ccc(C#N)cc2)nc1C(=O)NS(C)(=O)=O [Compound 67, 2-[4-cyano-N-(cyclopropylmethyl)anilino]-5-methyl-N-methylsulfonyl-thiazole-4-carboxamide] | > 2000
33 | Cc1sc(N(Cc2ccccc2)c2cccc(-n3cncn3)c2)nc1C(=O)NS(C)(=O)=O [Compound 71, 2-[N-benzyl-3-(1,2,4-triazol-1-yl)anilino]-5-methyl-N-methylsulfonyl-thiazole-4-carboxamide] | > 2000
34 | Cc1sc(N(CC(=O)N2CCCCC2)c2ccc(C#N)cc2)nc1C(=O)NS(C)(=O)=O [Compound 72, 2-(4-cyano-N-[2-oxo-2-(1-piperidyl)ethyl]anilino)-5-methyl-N-methylsulfonyl-thiazole-4-carboxamide] | > 2000

— patent publication US10689354B2, “Aminoazole derivative” (Teijin Pharma Limited, priority 2015, dated 2020)
